# Measurements published in patent publication US8816109B2, “Process for preparation of hexadecyl cis-9-tetradecenoate and hexadecyl cis-10-tetradecenoate” (Council of Scientific & Industrial Research, priority 2009, dated 2014).
# What was measured:
# [1] = system: Freund's complete adjuvant induced arthritis; experiment: Freund's complete adjuvant induced arthritis model, treatment of established arthritis; format: in vivo, Male Wistar rats; conditions: for dose dependence of inhibition of arthritis: dose increased from 100 mg/kg to 300 mg/kg
# Method: (§1) The anti-inflammatory activity potential of both the isomers of the cetyl myristoleate (4 & 8) was evaluated initially in carrageenan induced rat paw edema model employing the method of Winter et al (Winter C A, Risley E A and Nuss G W, J. Pharmacolo. Exp. Ther. 1963; 141:369-376). The arthritis developed by injecting Freund's Complete Adjuvant in Wistar rats is almost similar to the rheumatoid arthritis of the human beings.
# Effect of Hexadecyl cis-9-Tetradecenoate and Hexadecyl cis-10-Tetradecenoate on the Arthritic Rats: The hexadecyl cis-9-tetradecenoate, 4 and hexadecyl cis-10-tetradecenoate, 8 produced synthetically given above in Scheme 1 and 2 were subjected to evaluation for anti-arthritic potential in Freund's complete adjuvant induced arthritis model in rats. Male Wistar rats were divided into 4 groups each containing 6 rats. Arthritis was induced in rats in all the groups by administering Complete Freund's Adjuvant (CFA) at the dose of 1 mg per rat by injecting at sub plantar region of the right hind paw. Paw volumes were measured for both paws on every alternate day till 14 days and till full arthritis was developed.
# [2] = system: collagen-induced arthritis; conditions: synthesized pure compound, DBA/1 Lac J mice; cited from earlier work
# [3] = system: carrageenan induced paw edema; experiment: carrageenan induced rat paw edema model (anti-inflammatory potential); format: in vivo; conditions: rats
# Method: as §1
# Evaluation Studies of Hexadecyl cis-9-Tetradecenoate and Hexadecyl cis-10-Tetradecenoate for Anti-inflammatory. Potential: Hexadecyl cis-9-tetradecenoate, 4 and hexadecyl cis-10-tetradecenoate, 8 produced synthetically exemplified above in Scheme 1 and Scheme 2 were assessed for the anti-inflammatory potential against carrageenan induced paw edema model. Rats were divided into 4 groups. Hexadecyl cis-9-tetradecenoate, 4. and hexadecyl cis-10-tetradecenoate, 8 were administered intraperitoneally to rats in two different groups at a dose of 400 mg/kg. […] Paw volumes were measured using plethysmometer before injecting carrageenan. Paw volumes were again measured 3 hr after the carrageenan administration. The anti-inflammatory potential of hexadecyl cis-9-tetradecenoate, 4 and hexadecyl cis-10-tetradecenoate, 8 were assessed by measuring the inhibition of the paw volumes with reference to mean paw volume in control group.
# [4] = system: Freund's Complete Adjuvant induced poly arthritis; experiment: Freund's complete adjuvant induced polyarthritis, protection (dosing from 24 hr after adjuvant); format: in vivo, Male Wistar rats
# Method: Evaluation of Hexadecyl cis-10-Tetradecenoate for Anti-arthritic Potential in Rats: The hexadecyl cis-10-tetradecenoate, 8 produced synthetically exemplified above in Scheme 2 was administered parenterally, particularly, by intraperitoneal route, either alone or in a compatible pharmaceutical carrier such as vegetable oils namely groundnut, sesame and cottonseed [for adjusting the dose volume of the active compound(s)] to male rats ranging in weight from 150 to 180 g. It should be noted that use of the mineral oil is not mandatory as the active compounds are oils themselves. The procedure as described in (Vogel's Drug Discovery and Evaluation Pharmacological assays, 2nd ed, 2002, Springer Verlag, pages 802-803) was followed. Male Wistar-rats were divided into one control and two treated groups. All the animals in three groups received Freund's complete adjuvant (1 mg/rat). This day was designated as day 1. After a period of 24 hr, hexadecyl cis-10-tetradecenoate, 8 was administered at a dose of 300 mg/kg to one treated group and another treated group received 2.5 mg/kg of indomethacin (used as standard drug). Dosing was continued for 15 days (FIG. 3). Control group received the vehicle (mineral oil) without any drug. Paw volumes (left and right) were measured on every alternate day.
# All the rats in the control group developed severe polyarthritis as indicated by the increase in the paw volumes. […] Around 80% of the animals in the hexadecyl cis-10-tetradecenoate treated group were protected from developing arthritis in a period of 21 days. The remaining 20% rats were protected from arthritis in a period of 32 days.
SMILES,dose dependence of inhibition of arthritis [1],anti arthritic properties [2],"inhibition of inflammation compared with hexadecyl cis-9-tetradecenoate, 4 [3]","reduction of adjuvant-induced arthritis compared with hexadecyl cis-9-tetradecenoate, 4 ([1]; rats)","animals protected from developing arthritis in a period of 21 days ([4]; 300 mg/kg intraperitoneal, dosing for 15 days)","animals protected from developing arthritis in a period of 21 days ([4]; 300 mg/kg intraperitoneal, dosing for 15 days, listed as hexadecyl cis-10-tetradecenoate) [%]","remaining rats protected from arthritis in a period of 32 days ([4]; 300 mg/kg intraperitoneal, dosing for 15 days, period of 32 days) [%]","protection from polyarthritis (paw volumes) ([4]; 300 mg/kg intraperitoneal, from 24 hr after adjuvant, dosing continued for 15 days)","effective range (dose) for protection of arthritis ([4]; rats, Freund's complete adjuvant) [gm/kg body weight]"
"CCCC/C=C\CCCCCCCC(=O)OCCCCCCCCCCCCCCCC [compound 4, hexadecyl cis-9-tetradecenoate]",dose dependent,confirmed its anti arthritic properties,,,,,,,
"CCC/C=C\CCCCCCCCC(=O)OCCCCCCCCCCCCCCCC [compound 8, hexadecyl cis-10-tetradecenoate]",dose dependent,,comparable,comparable,Around 80%,80,20,protected from the polyarthritis,0.1 to 1.0
